# No end group written: not given here.
# Tests used:
# [1] = tested on: cell surface CD1d on Raji cells; assay: Cell surface expression of CD1d; format: cell-based, human; conditions: 50 microMolar
# Protocol: (§1) The ability of synthetic peptides to compete with binding of CLIP peptides and result in the cell surface expression of CD1d was determined.
# (§2) Results: The results shown in FIG. 5 are expressed in histogram analyses. The Y axis represents cell number of the 5000 live cells versus the X axis which is a reflection of relative Fitc fluorescence versus Streptavidin-PE (eBioscience, Cat. #12-4317) that will bind with high affinity to cell-bound biotinylated peptides. The distance between the histogram from the isotype control staining versus the histogram reflecting the specific stain and is a measure of level of cell surface CD1d.
# (§3) Cell Culture Conditions: The Raji and Daudi cell lines were purchased from American Type Culture Collection, were thawed, and grown in RPMI 1640 medium supplemented with standard supplements, including 10% fetal calf serum, gentamycin, penicillin, streptomycin, sodium pyruvate, HEPES buffer, 1-glutamine, and 2-ME.
# (§4) Protocol: Cells were plated into a 12 well plate with 3 mls total volume containing approximately 1.5×10^6/well for Daudi cells and 3.0×10^6/well for Raji cells. Treatment groups included no treatment as control and biotinylated […] (SEQ ID NO: 2) (also referred to as MKN 5) at 50 microMolar final concentration based on the reported molarity of the synthesized compounds.
# (§5) The cells were incubated at 37° C. in an atmosphere containing 5% CO2 and approximately 92% humidity. The cells were incubated for 4 and 24 hours. At each time point, the cells from that experimental time were harvested and stained for flow cytometric analysis of cell surface expression of CD1d by staining with PE anti-human CD1d (eBioscience, clone 51.5, cat. #12-00016-71).
# (§6) Harvested cells were stained using standard staining procedure that called for a 1:100 dilution of PE anti-CD1d. Following staining on ice for 25 minutes, cells were washed with PBS/FCS and resuspended in 100 microliters and added to staining tubes containing 400 microliters of PBS. Samples were acquired and analyzed on a Coulter Excel Flow Cytometer.
# [2] = tested on: cell surface CD1d on Daudi cells; assay: Cell surface expression of CD1d; format: cell-based, human; conditions: 50 microMolar
# Protocol: as §1, §2, §3, §4, §5, §6
# [3] = tested on: Daudi cells; assay: Binding of biotinylated peptide to cells (Streptavidin-PE); format: cell-based, human; conditions: 50 microMolar
# Protocol: as §1, §2, §3, §4, §5, §6
# [4] = tested on: Raji cells; assay: as above; format: cell-based, human; conditions: 50 microMolar
# Protocol: as §1, §2, §3, §4, §5, §6
# [5] = background statement; cited from earlier work
# [6] = tested on: cell surface CLIP on Daudi cells; assay: Cell surface CLIP by flow cytometry; format: cell-based, human; conditions: 24 and 48 hours
# Protocol: (§7) Kinetics of CLIP displacement from the surface of model B cells lines (Daudi and Raji) in response to thymic nuclear protein mixture was determined.
# (§8) Results were expressed in histogram analyses (FIG. 3). The Y axis represents cell number of the 5000 live cells versus the X axis which is a reflection of relative Fitc fluorescence. The distance between the histogram from the isotype control staining versus the histogram reflecting the specific stain is a measure of level of cell surface CLIP on a population of live Raji or Daudi cells as indicated. […]
# (§9) Harvested cells were stained using standard staining procedure that called for a 1:100 dilution of Fitc-anti-human CLIP or isotype control. […] Samples were acquired and analyzed on a Coulter Excel Flow Cytometer.
# (§10) The ability of MKN1 (bioCLIP) to alter cell surface CLIP and CD74 levels was determined using Raji or Daudi cells.
# (§11) Data were analyzed by histogram with Y axis represents cell number of the 5000 live cells versus the X axis which is a reflection of relative FITC fluorescence with either antibodies to CLIP or CD74. […]
# (§12) Harvested cells were stained using standard staining procedure that called for a 1:100 dilution of Fitc-anti-human CLIP or CD74 antibody (Fitc, Pharmingen, Cat #554647) or isotype control. […] Samples were acquired and analyzed on a Coulter Excel Flow Cytometer. […]
# [7] = tested on: cell surface CLIP on Raji cells; assay: Cell surface CLIP by flow cytometry; format: cell-based, human; conditions: 24 and 48 hours
# Protocol: as §7, §8, §9, §10, §11, §12
# [8] = tested on: cell surface CD74 on Raji cells; assay: Cell surface CD74 by flow cytometry; format: cell-based, human; conditions: 24 and 48 hours
# Protocol: as §10
# (§13) Data were analyzed by histogram with Y axis represents cell number of the 5000 live cells versus the X axis which is a reflection of relative FITC fluorescence with either antibodies to CLIP or CD74. The distance between the histogram from the isotype control staining versus the histogram reflecting the specific stain and is a measure of level of cell surface CLIP or CD74 when staining a population of live Raji or Daudi cells.
# as §3
# (§14) Protocol: Cells were plated into a 12 well plate with 3 mls total volume containing approximately 0.5×10^6/mL for Daudi cells and 0.5×10^6/mL for Raji cells. […]
# (§15) Harvested cells were stained using standard staining procedure that called for a 1:100 dilution of Fitc-anti-human CLIP or CD74 antibody (Fitc, Pharmingen, Cat #554647) or isotype control. […] Samples were acquired and analyzed on a Coulter Excel Flow Cytometer.
# [9] = tested on: cell surface CD74 on Daudi cells; assay: Cell surface CD74 by flow cytometry; format: cell-based, human; conditions: 24 and 48 hours
# Protocol: as §10, §13, §3, §14, §15
compound,measurement,setting,value
"Biotinylated FRIMAVLAS: biotinylated FRIMAVLAS (SEQ ID NO: 2), also referred to as MKN 5 (also: biotinylated, position not given here)",cell surface expression of CD1d,[1]; 4 hours,marginally
same,cell surface expression of CD1d,[1]; 24 hours,slightly more
same,cell surface expression of CD1d,[2]; 4 hours,marginally
same,cell surface expression of CD1d,[2]; 24 hours,slightly more
same,binding of biotinylated peptide to cells,[3]; 4 hours,bound with high affinity
same,binding of biotinylated peptide to cells,[3]; 24 hours,Less binding
same,binding of biotinylated peptide to cells,[4]; 4 hours,bound with high affinity
same,binding of biotinylated peptide to cells,[4]; 24 hours,Less binding
"C=CC[C@@H]1/C=C(\C)C[C@H](C)C[C@H](OC)[C@H]2O[C@@](O)(C(=O)C(=O)N3CCCC[C@H]3C(=O)O[C@H](/C(C)=C/[C@@H]3CC[C@@H](O)[C@H](OC)C3)[C@H](C)[C@@H](O)CC1=O)[C@H](C)C[C@@H]2OC [FK506, tacrolimus]",immunosuppressive activity relative to cyclosporin,[5],10-100 times greater than cyclosporin
SGG GSK MRM ATP LLM QAL Y [MKN1 (bioCLIP)],cell surface CLIP level,[6],alters
same,cell surface CLIP level,[7],alters
same,cell surface CD74 level,[8],alters
same,cell surface CD74 level,[9],alters
